Results on five molecules are retold here after patent US5861405A, “S-substituted 1,3,7-trialkyl-xanthine derivatives” (priority 1994, dated 1999).

For test [1], the target named is T1, rat A1 cortical receptors (Rattus norvegicus, UniProt P25099).
T1 construct: Rat cerebral cortical membranes and striatal membranes were prepared; from tissue; host or cells: rat cerebral cortex membranes
T1 sequence (P25099 1-326): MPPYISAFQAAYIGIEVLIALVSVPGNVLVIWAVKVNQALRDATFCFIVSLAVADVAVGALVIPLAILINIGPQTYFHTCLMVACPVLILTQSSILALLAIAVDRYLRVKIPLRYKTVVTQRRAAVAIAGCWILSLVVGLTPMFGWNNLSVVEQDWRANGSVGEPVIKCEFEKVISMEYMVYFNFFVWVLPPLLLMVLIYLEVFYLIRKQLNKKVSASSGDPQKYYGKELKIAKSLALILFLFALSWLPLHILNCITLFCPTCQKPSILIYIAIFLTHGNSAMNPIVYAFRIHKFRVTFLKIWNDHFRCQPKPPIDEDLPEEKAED
In words: Radioligand binding, [3H]N6-phenylisopropyladenosine ([3H]PIA), rat cortical A1 receptors.
Method: (§1) The 1,3,7-trialkyl-8-substituted xanthine compounds of the present invention were tested in a radioligand binding assay for affinity at adenosine receptors in rat brain membranes.
The final concentration of DMSO in the assay medium was generally 2%.
Membranes (~100 μg protein per tube) were incubated for 1.5 h at 37° C. in a total volume of 0.5 ml of 50 mM Tris hydrochloride, at pH 7.4. Test drugs were dissolved in DMSO and added in 10 μl aliquots, resulting in a final DMSO concentration of 2%. Bound and free radioligand were separated by addition of 3 ml of a buffer containing 50 mM Tris hydrochloride, pH 7.4, at 5° C., followed by vacuum filtration using a Brandel Cell Harvester (Brandel, Gaithersburg, Md.) and a Whatman GF/B glass fiber filter with additional washes totaling 9 ml of buffer. Non-specific binding was determined with 10 μM 2-chloroadenosine.
(§2) At least six different concentrations spanning three orders of magnitude, adjusted appropriately for the IC50 of each compound, were used.

The subject of test [2] is locomotor activity in mice. Briefly: Locomotor activity in mice, open field (Digiscan activity monitor). It is filed as in vivo, mouse. Particulars: for Behavioral stimulation: typical dose 10 (mg/kg, i.p.).
Method: Adult male mice of the NIH (Swiss) strain weighing 25-30 g were housed in groups of 10 animals per cage with a light-dark cycle of 12:12 h. The animals were given free access to standard pellet food and water and were acclimatized to laboratory conditions for 24 h prior to testing. Each animal was used only once in the activity monitor.
Locomotor activity of individual animals was studied in an open field using a Digiscan activity monitor (Omnitech Electronics Inc., Columbus, Ohio) equipped with an IBM-compatible computer. The computer-tabulated measurements represent multivariate locomotor analysis with specific measures, such as simultaneous measurements of ambulatory, rearing, stereotypical, and rotational behaviors. Data were collected in the morning, for three consecutive intervals of 10 minutes each, and analyzed separately and as a group. Statistical analysis was performed using the Student t test. […] Drugs were administered i.p. in a volume corresponding to 5 ml/kg body weight. Where applicable, the antagonist was injected 10 minutes before the agonist. ED50 values were determined using regression analysis on the InPlot software (GraphPAD, San Diego, Calif.).
Test [3] has as its system locomotor activity in mice. Conditions: postinjection (Baumgold et al.); cited from earlier work.
In test [4] the target is T2, A1 receptors, rat striatum (Rattus norvegicus, UniProt P25099).
T2 construct: Striatal tissue was isolated by dissection of rabbit, bovine, and rat brain; tissue Pel-Freeze Biologicals Co; host or cells: rat striatal membranes (frozen brain)
T2 sequence (P25099 1-326): T1 sequence (P25099 1-326)
In words: Competition binding vs [3H]PIA, rat striatal membranes.

Test [5] addresses T3, A1 receptors, guinea pig striatum (Cavia porcellus, UniProt P47745).
T3 construct: guinea pig, bovine, and rabbit striatal membranes; tissue Keystone Biologicals; host or cells: guinea pig striatal membranes (frozen brain)
Briefly: Competition binding vs [3H]PIA, guinea pig striatal membranes.

For test [6], the target named is T4, A1 receptors, bovine striatum (Bos taurus, UniProt P28190).
T4 construct: Striatal tissue was isolated by dissection of rabbit, bovine, and rat brain; tissue Pel-Freeze Biologicals Co; host or cells: bovine striatal membranes (frozen brain)
In words: Competition binding vs [3H]PIA, bovine striatal membranes.

The target in test [7] is T5, A1 receptors, rabbit striatum (Oryctolagus cuniculus, UniProt P34970).
T5 construct: Striatal tissue was isolated by dissection of rabbit, bovine, and rat brain; tissue Pel-Freeze Biologicals Co; host or cells: rabbit striatal membranes (frozen brain)
Briefly: Competition binding vs [3H]PIA, rabbit striatal membranes.

The test system of test [8] is A1 receptors, rat striatal membranes. Briefly: Irreversible inhibition after preincubation and washing, [3H]PIA, rat striatal membranes. It is filed as binding. Conditions: preincubation with 20 μM ISC, 60 min. How it is done:
Striatal membranes were treated with inhibitor as follows.

For test [9], the target named is T6, A2a receptors, rat striatum (Rattus norvegicus, UniProt P30543). Particulars: four species (rat, guinea pig, bovine, rabbit).
The target in test [10] is T7, rat striatal A2a receptors (Rattus norvegicus, UniProt P30543).
Test [11] addresses T6, A2a receptors, rat striatum. Briefly: biochemical.
The target of test [12] is A2a receptors, bovine striatum (Bos taurus, UniProt E1BKU0). In words: biochemical.
Test [13] has as its target A2a receptors, rabbit striatum (Oryctolagus cuniculus, UniProt G1SVQ2). Briefly: biochemical.
Test [14] addresses T7, rat striatal A2a receptors. Briefly: biochemical.
A further test has as its target bovine A2a receptors (Bos taurus, UniProt E1BKU0). In words: biochemical.
The target in a further test is rabbit A2a receptors (Oryctolagus cuniculus, UniProt G1SVQ2). Briefly: biochemical.
In test [15] the target is T7, rat striatal A2a receptors. In words: Radioligand binding, [3H]CGS 21680, rat striatal A2a receptors. Set-up: Rat cerebral cortical membranes and striatal membranes were prepared; from tissue; host or cells: rat striatal membranes.
Method: as §1
The stock solutions were diluted with DMSO to a concentration of ≥0.1 mM prior to adding to the aqueous medium. The final concentration of DMSO in the assay medium was generally 2%.
Test drugs were dissolved in DMSO and added in 10 μl aliquots, resulting in a final DMSO concentration of 2%. Non-specific binding was defined using 20 μM 2-chloroadenosine. Filtration was carried out using a Brandel Cell Harvester, as above, using Tris HCl/MgCl2 as the washing buffer.
as §2
The target of test [16] is T8, A2a receptor, human platelets (Homo sapiens, UniProt P29274).
T8 construct: PC12) cell membranes or in human platelets; from tissue; host or cells: human platelets
In words: Antagonism of NECA-elicited stimulation of adenylate cyclase, human platelets. The format is biochemical.

Test [17] concerns the target T9, A2a receptor, rat pheochromocytoma (PC12) cells (Rattus norvegicus, UniProt P30543).
T9 construct: via an A2a receptor in rat pheochromocytoma (PC12) cell membranes; endogenous in cells; host or cells: PC12 cells (rat pheochromocytoma)
Briefly: biochemical. Conditions: Table VI; read-out: Adenylate cyclase (KB), rat PC12 cells A2a.

The target in test [18] is A1 receptor, rat adipocytes (Rattus norvegicus, UniProt P25099). Briefly: biochemical.
Method: KB values were calculated using the Schild equation from the ratio of EC50 values for agonist in the presence and absence of antagonist.
Test [19] has as its target T6, A2a receptors, rat striatum. In words: Radioligand binding vs [3H]N-ethylcarboxamidoadenosine, rat striatum. The arrangement: Striatal tissue was isolated by dissection of rabbit, bovine, and rat brain; tissue Pel-Freeze Biologicals Co; host or cells: rat striatal membranes (frozen brain). Conditions: Table VI; vs [3H]NECA; read-out: Inhibition of binding (Ki), rat striatum A2a.

Test [20] concerns the target A1 receptors, guinea pig brain. Conditions: vs [3H]CHA in guinea pig brain; read-out: Ki (A1), Shimada et al.; cited from earlier work.
Test [21] concerns the target A2 receptors, rat striatum. Conditions: vs [3H]NECA in rat striatum; read-out: Ki (A2a), Shimada et al.; cited from earlier work.
The next test addresses A2 receptors, rat brain. Conditions: read-out: Ki (A2a), Erickson et al.; cited from earlier work.
For test [22], the system named is rat brain A2a- vs. A1-receptors. Conditions: cited from earlier work.
The next test has as its system locomotor activity. Particulars: in vivo, cited from earlier work.
Setting [23] is: Table VI, vs [3H]PIA, read-out: Inhibition of binding (Ki), rat cortex A1.

Read-outs that look alike come from different tables or passages of the source.

T6 sequence (P30543 whole entry): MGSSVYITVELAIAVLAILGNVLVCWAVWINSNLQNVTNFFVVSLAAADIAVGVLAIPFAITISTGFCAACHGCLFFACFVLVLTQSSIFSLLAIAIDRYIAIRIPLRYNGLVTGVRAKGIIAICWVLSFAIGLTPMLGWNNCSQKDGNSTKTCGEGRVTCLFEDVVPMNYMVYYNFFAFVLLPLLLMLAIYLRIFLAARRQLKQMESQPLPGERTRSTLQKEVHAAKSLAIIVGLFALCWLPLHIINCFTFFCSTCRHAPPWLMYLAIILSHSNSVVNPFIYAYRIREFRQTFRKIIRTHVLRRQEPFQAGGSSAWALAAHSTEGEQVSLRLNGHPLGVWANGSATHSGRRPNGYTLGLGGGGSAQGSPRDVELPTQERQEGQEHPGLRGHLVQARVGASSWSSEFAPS
T7 sequence (P30543 whole entry): as above
A2a receptors, rabbit striatum, sequence (G1SVQ2 1-409): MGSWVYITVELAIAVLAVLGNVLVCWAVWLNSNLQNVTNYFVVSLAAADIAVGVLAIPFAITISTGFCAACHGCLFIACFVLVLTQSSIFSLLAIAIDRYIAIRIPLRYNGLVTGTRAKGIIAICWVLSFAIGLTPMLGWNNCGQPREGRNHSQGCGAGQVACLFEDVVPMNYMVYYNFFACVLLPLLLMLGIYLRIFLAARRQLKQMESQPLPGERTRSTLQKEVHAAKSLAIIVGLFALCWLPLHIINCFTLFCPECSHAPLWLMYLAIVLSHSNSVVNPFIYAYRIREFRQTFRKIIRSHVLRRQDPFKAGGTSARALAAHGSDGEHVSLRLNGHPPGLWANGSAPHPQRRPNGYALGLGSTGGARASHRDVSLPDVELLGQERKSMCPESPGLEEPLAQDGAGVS
bovine A2a receptors, sequence (E1BKU0 1-401): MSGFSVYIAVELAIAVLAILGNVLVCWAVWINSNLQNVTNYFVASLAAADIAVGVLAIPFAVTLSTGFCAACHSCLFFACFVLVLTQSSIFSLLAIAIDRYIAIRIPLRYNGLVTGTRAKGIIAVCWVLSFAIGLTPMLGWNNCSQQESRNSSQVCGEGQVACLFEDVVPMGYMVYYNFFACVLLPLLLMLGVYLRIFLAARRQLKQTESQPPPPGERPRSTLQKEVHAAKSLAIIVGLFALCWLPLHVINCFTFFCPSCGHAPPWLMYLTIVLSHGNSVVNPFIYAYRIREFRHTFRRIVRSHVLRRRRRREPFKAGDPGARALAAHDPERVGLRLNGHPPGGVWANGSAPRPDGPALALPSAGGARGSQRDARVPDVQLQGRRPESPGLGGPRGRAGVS
A2a receptors, bovine striatum, sequence (E1BKU0 1-401): as above
T8 sequence (P29274 whole entry): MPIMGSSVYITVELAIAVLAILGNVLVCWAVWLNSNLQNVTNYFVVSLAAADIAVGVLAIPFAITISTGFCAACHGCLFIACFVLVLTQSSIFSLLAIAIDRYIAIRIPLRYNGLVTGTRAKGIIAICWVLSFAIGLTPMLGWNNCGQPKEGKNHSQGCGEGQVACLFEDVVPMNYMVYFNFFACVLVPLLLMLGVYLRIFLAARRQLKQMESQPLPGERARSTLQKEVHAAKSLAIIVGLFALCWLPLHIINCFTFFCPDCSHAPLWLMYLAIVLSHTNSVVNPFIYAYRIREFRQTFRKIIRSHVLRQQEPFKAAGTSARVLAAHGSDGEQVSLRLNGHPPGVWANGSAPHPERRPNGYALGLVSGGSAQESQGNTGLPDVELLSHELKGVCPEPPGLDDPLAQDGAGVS
rabbit A2a receptors, sequence (G1SVQ2 1-409): as the sequence (G1SVQ2 1-409) above
T5 sequence (P34970 whole entry): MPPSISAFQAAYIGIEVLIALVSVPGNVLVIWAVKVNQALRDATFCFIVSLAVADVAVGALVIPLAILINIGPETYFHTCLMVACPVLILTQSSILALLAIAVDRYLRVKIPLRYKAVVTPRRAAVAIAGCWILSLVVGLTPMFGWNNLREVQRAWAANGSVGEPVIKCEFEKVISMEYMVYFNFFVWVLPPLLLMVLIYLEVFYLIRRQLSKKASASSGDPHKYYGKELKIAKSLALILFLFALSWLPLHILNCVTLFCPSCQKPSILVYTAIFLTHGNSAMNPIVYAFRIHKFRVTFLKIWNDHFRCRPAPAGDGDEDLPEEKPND
T9 sequence (P30543 whole entry): as the sequence (P30543 whole entry) above
T4 sequence (P28190 whole entry): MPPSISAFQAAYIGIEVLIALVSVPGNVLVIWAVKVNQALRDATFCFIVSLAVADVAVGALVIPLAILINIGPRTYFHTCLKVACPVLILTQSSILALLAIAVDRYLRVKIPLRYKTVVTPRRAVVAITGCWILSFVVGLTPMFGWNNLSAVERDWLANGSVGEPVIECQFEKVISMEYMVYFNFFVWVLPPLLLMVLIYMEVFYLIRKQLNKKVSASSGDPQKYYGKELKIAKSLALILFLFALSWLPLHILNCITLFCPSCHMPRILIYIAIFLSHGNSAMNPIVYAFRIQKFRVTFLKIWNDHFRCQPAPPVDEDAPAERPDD
T3 sequence (P47745 whole entry): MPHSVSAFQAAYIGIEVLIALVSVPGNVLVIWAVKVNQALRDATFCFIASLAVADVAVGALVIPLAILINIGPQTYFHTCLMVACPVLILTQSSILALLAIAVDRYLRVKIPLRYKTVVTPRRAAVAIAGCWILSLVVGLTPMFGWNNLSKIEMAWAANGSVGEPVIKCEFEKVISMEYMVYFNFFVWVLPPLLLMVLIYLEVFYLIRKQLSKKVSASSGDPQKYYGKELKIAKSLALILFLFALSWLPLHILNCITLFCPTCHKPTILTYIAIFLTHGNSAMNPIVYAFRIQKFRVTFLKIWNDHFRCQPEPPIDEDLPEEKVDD

For the molecule `Cn1c(=O)c2[nH]c(C3CCCC3)nc2n(C)c1=O` [CPT, 8-cyclopentyltheophylline, reference compound], the Ki (in general, a dissociation constant, usually derived from enzyme kinetics or from competition with a known ligand) in [1] (setting [23]) came out at 0.024 µM. Further, the “locomotor stimulation, in words” value in test [2] (mice) was “moderate, but transient, locomotor stimulation”. Moreover, the Behavioral stimulation result in test [2] was “++”. In addition, the “time until stimulatory effect disappears” value in [3] is reported as at most 20 min.

With `Cn1c(=O)c2c(nc(/C=C/c3cccc(N=C=S)c3)n2C)n(C)c1=O` [Compound 28e, 1,3,7-trimethyl-8-(3-isothiocyanatostyryl)xanthine], the Ki was found to be 20.3 µM in test [1]; 20.3 µM in test [4] (Ki value (A1), rat striatum, Table V footnote b); 20 µM in test [4] (Ki value at A1-receptors, rat striatum); 0.111 µM in test [11]; 0.347 ± 0.112 µM in [13]; 0.111 ± 0.001 µM in [15] (Ki (A2a)). Besides, the IC50 (in general, the midpoint of a concentration-inhibition curve) was found to be 42.6 µM in [4] (IC50 (A1), rat, vs [3H]PIA (1 nM)); 43 µM in [4] (IC50 at A1-receptors, rat striatum); 51.4 µM in test [5]; 63.4 µM in test [6]; 75.6 µM in test [7]; 0.146 µM in test [11]. In addition, the IC50 in [12] is 0.516 ± 0.064 µM; in [13], 0.413 ± 0.135 µM; in [14] it was 2.7 µM. The “loss of [3H]PIA binding” value in [8] is listed as 12±2.9%. For the same molecule, in [9], the “Hill coefficients for displacement of [3H]CGS 21680” value is recorded as around 1. The “time for inhibition of 50% of final value at 2 h” value in test [10] (2 μM ISC, 25° C.) is on record as “Approximately 3 min”. Moreover, in test [10] (IBMX 100 μM overnight on ISC-treated membranes), the “regeneration of A2a-receptor binding” value is “did not regenerate any A2a -receptor binding”. Further, the inhibition at 20 µM in test [14] (1 h, read-out: loss of specific [3H]CGS 21680 binding, preincubation with 20 μM ISC, rat) is around 80%. For the same molecule, the inhibition at 2 µM in test [14] (2 h, read-out: loss of specific [3H]CGS 21680 binding at 2 h, 2 μM ISC, 25° C.) was around 55%. The EC50 (commonly the midpoint of the concentration-response curve) at bovine A2a receptors worked out at 8 µM; on rabbit A2a receptors, 10 µM.

In the case of `C#CCn1c(=O)c2c(ncn2C)n(C)c1=O` [DMPX, 3,7-dimethyl-1-propargylxanthine], the figures for the Ki in test [1] (setting [23]) and in [19] were 45 µM and 16 µM, respectively. The Kb is 4 µM in test [16], 9.6 µM in test [17] and 94 µM in test [18]. Moreover, in [2], the Behavioral stimulation entry is “+++”.

For `CCCn1c(=O)c2[nH]c(/C=C/c3ccccc3)nc2n(CCC)c1=O` [Compound 47], the inhibitory constant (Ki) in test [20] is 1.8 µM; in test [21], 0.026 µM; on A2 receptors, rat brain it was 0.085 µM; in test [15] (Table I, vs [3H]CGS21680 (5 nM), rat striatal A2 receptors, read-out: Ki (A2a)) it was 0.044 ± 0.019 µM.

On to `Nc1nc2ccc(Cl)cc2n2c(-c3ccccc3)nnc12` [CP66,713], for which, in test [22], the “selectivity A2a vs. A1” value is reported as 12 fold. Further, the “effect on A1 depression of locomotor activity” value in the test on locomotor activity (same dose) is recorded as “no effect on A1 depression of locomotor activity”. In addition, the “antagonism of A2 depression of locomotor activity” value with locomotor activity is recorded as “partial antagonism of A2 depression of locomotor activity”.
